Data: patent publication US20220315554A1, “COMPOUNDS COMPRISING A […] LIGAND AND USE THEREOF” (priority 2019, published 2022)
Numbered stars: 1 amine (or outer) side, 2 acyl side, 3 side chain; on linkers, the order of the positions; unused ones are H or OH. Bridge positions count the residues as written; N and C are the ends. Square brackets hold non-standard residues; d marks the D form. Peptide text beside a SMILES is read from it. * marks the point of attachment. TBMB(SCH2CH2NH-DOTA) = O=C(O)CN1CCN(CC(=O)O)CCN(CC(=O)NCCSCc2cc(C[*:1])cc(C[*:2])c2)CCN(CC(=O)O)CC1; X4 = O=C1CN2CCN3CCN(CC(=O)N4CCN(Cc5cc(C[*:1])cc(C[*:2])c5)CC4)CCN(CC2)CC(=O)[O][In]([O]1)[O]C(=O)C3; X8 = O=C1CN2CCN3CCN(CC(=O)N4CCN(Cc5cc(C[*:1])cc(C[*:2])c5)CC4)CCN(CC2)CC(=O)[O][Ga]([O]1)[O]C(=O)C3; X7 = O=C(CN1CCN2CCN3CCN(CC1)CC(=O)[O][In]([O]C(=O)C2)[O]C(=O)C3)NCCSCc1cc(C[*:1])cc(C[*:2])c1; NH(CH2)5NHDOTA = O=C(O)CN1CCN(CC(=O)O)CCN(CC(=O)NCCCCCN*)CCN(CC(=O)O)CC1; mXylylene = c1cc(C[*:1])cc(C[*:2])c1; Pentanesulfonyl = CCCCCS(=O)(=O)*; Hexanoyl = CCCCCC(=O)*; Sar = CNCC(=O)O

Key:
[1] = target: T1, FAP-expressing human WI-38 fibroblasts (Homo sapiens, UniProt Q12884); assay: Competitive FACS binding assay; conditions: pIC50 Category (FACS), competition with 3 nM Cy5-labeled compound, 4° C., 1 hour
T1 construct: FAP-expressing human WI-38 fibroblasts (ECACC) were cultured in EMEM; host or cells: WI-38 human fibroblasts
T1 sequence (Q12884 1-760): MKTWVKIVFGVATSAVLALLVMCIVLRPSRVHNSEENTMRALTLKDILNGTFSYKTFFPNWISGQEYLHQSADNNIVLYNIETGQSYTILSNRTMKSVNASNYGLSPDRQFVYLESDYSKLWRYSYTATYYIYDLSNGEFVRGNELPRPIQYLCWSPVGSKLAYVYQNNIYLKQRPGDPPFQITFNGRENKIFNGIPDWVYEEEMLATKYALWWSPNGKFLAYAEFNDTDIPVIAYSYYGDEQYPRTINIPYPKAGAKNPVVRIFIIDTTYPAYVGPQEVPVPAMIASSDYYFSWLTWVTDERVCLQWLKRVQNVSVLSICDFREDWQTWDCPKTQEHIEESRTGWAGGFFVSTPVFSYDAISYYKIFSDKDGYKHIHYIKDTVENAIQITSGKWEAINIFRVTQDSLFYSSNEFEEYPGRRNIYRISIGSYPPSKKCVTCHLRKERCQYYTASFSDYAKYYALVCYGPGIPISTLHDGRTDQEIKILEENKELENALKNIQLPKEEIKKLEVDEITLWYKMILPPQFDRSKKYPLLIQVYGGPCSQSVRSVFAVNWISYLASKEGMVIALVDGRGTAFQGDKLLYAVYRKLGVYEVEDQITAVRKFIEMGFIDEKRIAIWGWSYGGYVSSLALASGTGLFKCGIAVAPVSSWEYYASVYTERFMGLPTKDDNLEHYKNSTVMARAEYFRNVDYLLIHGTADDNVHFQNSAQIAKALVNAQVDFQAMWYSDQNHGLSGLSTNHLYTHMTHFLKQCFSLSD
Protocol: Cells were analyzed in an Attune NxT flow cytometer. […]

Human recombinant FAP [2] = target: T2, Human recombinant FAP (Homo sapiens, UniProt Q12884); assay: Surface plasmon resonance (Biacore) assay; assay type: binding
T2 sequence (Q12884 1-760): T1 sequence (Q12884 1-760)

Human recombinant FAP [3] = target: T2, Human recombinant FAP; assay: FRET-based FAP protease activity assay; assay type: biochemical; set-up: purchased R&D systems 3715-SE; conditions: pIC50 Category (Activity), FRET substrate, 37° C.

SMILES | IC50 ([1]; WI-38 fibroblasts) [nM] | Kd (Human recombinant FAP [2]) [nM] | IC50 (Human recombinant FAP [3]; recombinant human FAP) [nM] | IC50 [1] [nM] | IC50 (Human recombinant FAP [3]) [nM]
CCCCCC(=O)N[C@H]1CSCc2cc(cc(CN3CCN(C(=O)CN4CCN5CCN6CCN(CC4)CC(=O)[O][Ga]([O]C(=O)C6)[O]C(=O)C5)CC3)c2)CSC[C@@H](C(=O)N[C@@H](CC(=O)O)C(N)=O)NC(=O)[C@H](Cc2ccccc2)NC(=O)[C@H](CCC(N)=O)NC(=O)[C@H]([C@@H](C)O)NC(=O)[C@@H]2CCCN2C(=O)[C@@H]2CCCN2C1=O [3BP-3592, Gallium-Complex of Hex-[Cys(tMeBn(DOTA-PP))-Pro-Pro-Thr-Gln-Phe-Cys]-Asp-NH2] (Hexanoyl-CPPTQFCD-NH2; linker 1-7 via X8) | < 10 | < 10 | < 10 |  | 
CCCCCC(=O)N[C@H]1CSCc2cccc(c2)CSC[C@@H](C(=O)N[C@@H](CC(=O)O)C(=O)NCCCCCNC(=O)CN2CCN(CC(=O)O)CCN(CC(=O)O)CCN(CC(=O)O)CC2)NC(=O)[C@H](Cc2ccccc2)NC(=O)[C@H](CCC(N)=O)NC(=O)[C@H]([C@@H](C)O)NC(=O)[C@@H]2CCCN2C(=O)[C@@H]2CCCN2C1=O [3BP-3403, Hex-[Cys(3MeBn)-Pro-Pro-Thr-Gln-Phe-Cys]-Asp-Ape(DOTA)] (Hexanoyl-CPPTQFCD-{NH(CH2)5NHDOTA}; linker 1-7 via mXylylene) | < 10 | < 10 | < 10 |  | 
CCCCCC(=O)N[C@H]1CSCc2cc(CSCCNC(=O)CN3CCN(CC(=O)O)CCN(CC(=O)O)CCN(CC(=O)O)CC3)cc(c2)CSC[C@@H](C(=O)NCCC(N)=O)NC(=O)[C@H](Cc2ccccc2)NC(=O)[C@H](CCC(N)=O)NC(=O)[C@H]([C@@H](C)O)NC(=O)[C@@H]2CCCN2C(=O)[C@@H]2CCCN2C1=O [3BP-3736, Hex-[Cys(tMeBn(DOTA-AET))-Pro-Pro-Thr-Gln-Phe-Cys]-Bal-NH2] |  | < 10 |  | < 10 | < 10
CCCCCC(=O)N[C@H]1CSCc2cc(CSCCNC(=O)CC[C@@H]3C(=O)[O][Ga]([O]C(=O)CN(C)CC)[O]C(=O)CN(C)CCN3CC)cc(c2)CSC[C@@H](C(=O)O)NC(=O)[C@H](Cc2ccccc2)NC(=O)[C@H](CCC(N)=O)NC(=O)[C@H]([C@@H](C)O)NC(=O)[C@@H]2CCCN2C(=O)[C@@H]2CCCN2C1=O [3BP-4184, Gallium-Complex of Hex-[Cys(tMeBn(NODAGA-AET))-Pro-Pro-Thr-Gln-Phe-Cys]-OH] |  | < 10 |  | < 10 | < 10
CCCCCC(=O)N[C@H]1CSCc2cccc(c2)CSC[C@@H](C(=O)N[C@@H](CC(=O)O)C(N)=O)NC(=O)[C@H](Cc2ccccc2)NC(=O)[C@H](CCC(=O)O)NC(=O)[C@H]([C@@H](C)O)NC(=O)[C@@H]2CCCN2C(=O)[C@@H]2CCCN2C1=O [3BP-3288, Hex-[Cys(3MeBn)-Pro-Pro-Thr-Glu-Phe-Cys]-Asp-NH2] (Hexanoyl-CPPTEFCD-NH2; linker 1-7 via mXylylene) | < 10 | < 10 | < 10 |  | 
CCCCCS(=O)(=O)N[C@H]1CSCc2cccc(c2)CSC[C@@H](C(=O)N[C@@H](CC(=O)O)C(N)=O)NC(=O)[C@H](Cc2ccccc2)NC(=O)[C@H](CCC(N)=O)NC(=O)[C@H]([C@@H](C)O)NC(=O)[C@@H]2CCCN2C(=O)[C@@H]2CCCN2C1=O [3BP-3514, Pentyl-SO2-[Cys(3MeBn)-Pro-Pro-Thr-Gln-Phe-Cys]-Asp-NH2] (Pentanesulfonyl-CPPTQFCD-NH2; linker 1-7 via mXylylene) | < 10 | < 10 | < 10 |  | 
CCCCCC(=O)N[C@H]1CSCc2cc(CSCCNC(=O)COCCOCCNC(=O)C(CNCCN)CNCCN)cc(c2)CSC[C@@H](C(=O)O)NC(=O)[C@H](Cc2ccccc2)NC(=O)[C@H](CCC(N)=O)NC(=O)[C@H]([C@@H](C)O)NC(=O)[C@@H]2CCCN2C(=O)[C@@H]2CCCN2C1=O [3BP-4088, Hex-[Cys-(tMeBn(N4Ac-O2Oc-AET))-Pro-Pro-Thr-Gln-Phe-Cys]-OH] |  | < 10 |  | < 10 | < 10
CCCCCC(=O)N[C@H]1CSCc2cc(CSCCNC(=O)CN3CCN(CC(=O)O)CCN(CC(=O)O)CCN(CC(=O)O)CC3)cc(c2)CSC[C@@H](C(=O)NCC(=O)O)NC(=O)[C@H](Cc2ccccc2)NC(=O)[C@H](CCC(N)=O)NC(=O)[C@H]([C@@H](C)O)NC(=O)[C@@H]2CCCN2C(=O)[C@@H]2CCCN2C1 [3BP-3656, Hex-[Cys(tMeBn(DOTA-AET))-Pro-Pro-Thr-Gln-Phe-Cys]-Gly-OH] | < 10 | < 10 | < 10 |  | 
CCCCCS(=O)(=O)N[C@H]1CSCc2cc(cc(CN3CCN(C(=O)CN4CCN5CCN6CCN(CC4)CC(=O)[O][In]([O]C(=O)C6)[O]C(=O)C5)CC3)c2)CSC[C@@H](C(=O)N[C@@H](CC(=O)O)C(N)=O)NC(=O)[C@H](Cc2ccccc2)NC(=O)[C@H](CCC(N)=O)NC(=O)[C@H]([C@@H](C)O)NC(=O)[C@@H]2CCCN2C(=O)[C@@H]2CCCN2C1=O [3BP-3717, Pentyl-SO2-[Cys(tMeBn(InDOTA-PP))-Pro-Pro-Thr-Gln-Phe-Cys]-Asp-NH2] (Pentanesulfonyl-CPPTQFCD-NH2; linker 1-7 via X4) |  | < 10 |  | < 10 | < 10
CCCCCC(=O)N[C@H]1CSCc2cc(CSCCNC(=O)CN3CCN4CCN5CCN(CC3)CC(=O)[O][In]([O]C(=O)C4)[O]C(=O)C5)cc(c2)CSC[C@@H](C(=O)O)NC(=O)[C@H](Cc2ccccc2)NC(=O)[C@H](CCC(N)=O)NC(=O)[C@H]([C@@H](C)O)NC(=O)[C@@H]2CCCN2C(=O)CN(C)C1=O [3BP-3716, Hex-[Cys(tMeBn(InDOTA-AET))-Nmg-Pro-Thr-Gln-Phe-Cys]-OH] (Hexanoyl-C[Sar]PTQFC-OH; linker 1-7 via X7) |  | < 10 |  | < 10 | < 10
CCCCCC(=O)N[C@H]1CSCc2cc(CSCCNC(=O)CN3CCN(CC(=O)O)CCN(CC(=O)O)CCN(CC(=O)O)CC3)cc(c2)CSC[C@@H](C(=O)O)NC(=O)[C@H](Cc2ccccc2)NC(=O)[C@H](CCC(N)=O)NC(=O)[C@H]([C@@H](C)O)NC(=O)[C@@H]2CCCN2C(=O)[C@@H]2CCCN2C1 [3BP-3678, Hex-[Cys(tMeBn(DOTA-AET))-Nmg-Pro-Thr-Gln-Phe-Cys]-OH] |  | < 10 |  | < 10 | < 10
CCCCCC(=O)N[C@H]1CSCc2cc(CSCCNC(=O)CN3CCN(CC(=O)O)CCN(CC(=O)O)CCN(CC(=O)O)CC3)cc(c2)CSC[C@@H](C(=O)N[C@@H](CC(=O)O)C(=O)O)NC(=O)[C@H](Cc2ccccc2)NC(=O)[C@H](CCC(N)=O)NC(=O)[C@H]([C@@H](C)O)NC(=O)[C@@H]2CCCN2C(=O)[C@@H]2CCCN2C1=O [3BP-3665, Hex-[Cys(tMeBn(DOTA-AET))-Pro-Pro-Thr-Gln-Phe-Cys]-Asp-OH] (Hexanoyl-CPPTQFCD-OH; linker 1-7 via TBMB(SCH2CH2NH-DOTA)) |  | < 10 |  | < 10 | < 10
CCCC[C@H](NC(=O)CCC(=O)NCCCOCCOCCOCCCNC(=O)[C@H](CCC(=O)NC[C@H](O)[C@@H](O)[C@H](O)[C@H](O)CO)NC(=O)[C@H](CCC(=O)NC[C@H](O)[C@@H](O)[C@H](O)[C@H](O)CO)NC(=O)C(CNCCN)CNCCN)C(=O)N[C@H]1CSCc2cccc(c2)CSC[C@@H](C(=O)O)NC(=O)[C@H](Cc2ccccc2)NC(=O)[C@H](CCC(=O)O)NC(=O)[C@H]([C@@H](C)O)NC(=O)[C@@H]2CCCN2C(=O)[C@@H]2CCCN2C1=O [3BP-4266, N4Ac-Glu(AGLU)-Glu(AGLU)-Ttds-Nle-[Cys-(3MeBn)-Pro-Pro-Thr-Glu-Phe-Cys]-OH] |  |  |  | 10 to 79.4 | 10 to 79.4
